Here are results for two compounds from patent US20090194124A1, “Hair Shaping Kit and Process Comprising at Least One Non-Hydroxide Imine” (priority 2003, published 2009).

Data set [1] can be described thus: pH of the simplified permanent-waving composition. Format: physicochemical. The procedure:
[…]. The pH of the composition was 13.6. This composition was applied to Caucasian hair, wound beforehand onto curlers, for 15 minutes at a temperature of 30° C.
[…]. The pH of the composition was 13.5. This composition was applied to Caucasian hair, wound beforehand onto curlers, for 25 minutes at a temperature of 30° C.
A simplified permanent-waving composition was prepared, containing, as a permanent-waving active agent, 1,3,4,6,7,8-hexahydro-2H-pyrimido[1,2-a]pyrimidine (Registry Number [5807-14-7]) at a concentration of 0.7 M in water. The pH of the composition was 13.5. This composition was applied to Caucasian hair, wound beforehand onto curlers, for 15 minutes at a temperature of 30° C.
A simplified permanent-waving composition was prepared, containing, as a permanent-waving active agent, 1,3,4,6,7,8-hexahydro-2H-pyrimido[1,2-a]pyrimidine (Registry Number [5807-14-7]) at a concentration of 0.5M in water. The pH of the composition was 13.4. This composition was applied to Caucasian hair, wound beforehand onto curlers, for 20 minutes at a temperature of 30° C.

Data set [2] in a line: permanent-waving of hair wound onto curlers with a simplified aqueous composition. The note with it: Caucasian hair wound onto curlers. How it is done:
In the permanent shaping processes described herein, the composition is applied to wet or dry hair, wound beforehand onto rollers (curlers) having a diameter of from 2 mm to 30 mm. It is also possible to apply the composition as the hair is wound up. […] This composition was applied to Caucasian hair, wound beforehand onto curlers, for 15 minutes at a temperature of 30° C. […] This composition was applied to Caucasian hair, wound beforehand onto curlers, for 25 minutes at a temperature of 30° C. […] This composition was applied to Caucasian hair, wound beforehand onto curlers, for 15 minutes at a temperature of 30° C. […] This composition was applied to Caucasian hair, wound beforehand onto curlers, for 20 minutes at a temperature of 30° C.

As for `CN(C)C(=N)NC(=N)N` [1,1-dimethylbiguanide], the “pH of the composition” value is 13.5 in data set [1] (0.5M in water) and 13.6 in data set [1] (0.7 M in water).
As to `C1CN=C2NCCCN2C1` [1,3,4,6,7,8-hexahydro-2H-pyrimido[1,2-a]pyrimidine], the “pH of the composition” value in data set [1] (0.5M in water) is recorded as 13.4; in data set [1] (0.7 M in water) it was 13.5. The “result on the hair after permanent-waving (curl and feel)” value in data set [2] (0.5M in water, applied 20 minutes at 30° C.) was “beautifully curly and felt soft”; in data set [2] (0.7 M in water, applied 15 minutes at 30° C.) it was “beautifully curly and felt soft”.
